According to US20050090453A1, “Methods of modulating IL-6” (SOLBEC PHARMACEUTICALS CO., LTD., priority 2003, published 2005):
Converted amounts (≈) assume the structure as drawn.

Tests used:
[1] = test system: IL-6; test: IL-6 ELISA of media from treated mesothelioma and control cells; type: cell-based, human; settings: for surge in IL-6 production: as the concentration of drug approached its IC50 value
Experimental: The IL-6 assay was performed using a human IL-6 ELISA kit (eBioscience, USA) according to the manufacturers protocol. Briefly ninety six well plates were incubated at room temperature overnight with 100 μL per well of monoclonal antihuman IL-6 antibody in coating buffer (0.1M Na2CO3/NaHCO3, pH 9.6). The plate was washed five times with PBS and then 200 μL of blocking buffer added to each well and incubated for one hour at room temperature. The plate was then washed five times in PBS with 0.005% Tween 20 (Sigma-Aldrich, NSW). 100 μL of each sample to be assayed was added to each well and also IL-6 standard solutions ranging from 0.6-400 pg/ml were used to generate a standard curve.
After a one hour incubation, the plate was washed as above and 100 μL of biotinylated-IL-6 antibody solution added for a further hour. Following further washes, 100 μL of streptavidin-HRP conjugate solution was added for 30 minutes and the plates washed. 100 μL of ABTS solution was added and following incubation for 30 minutes at 37° C., the plate was read at 405 nm on a SpectraMax 250 plate reader (Molecular Devices) and the concentration of IL-6 for each sample calculated from the standard curve.
Samples for use in the ELISA were prepared by seeding of cells in 96 well plates with or without chemotherapy as described previously. As in the previous experiments chemotherapy was added 24 hours after cell seeding. For cell lysis experiments 300 μl of distilled water was added to each well and lysis of cells was confirmed by visual inspection. Media from these assays was removed at the appropriate time and stored at −20° C. until the ELISA was performed. The concentration of IL-6 for each cell line represents the mean value generated from three separate experiments. The results from chemotherapy effects on IL-6 production are representative of two or more experiments.

[2] = test system: five human malignant mesothelioma cell lines (Ju77, Lo68, No36, One58, Sty51); test: MTT assay, five mesothelioma cell lines; type: cell-based; settings: range over five mesothelioma cell lines, 72 hours, read-out: IC50 (concentration required to reduce cell viability by 50%)
From the text: (§1) A panel of five human malignant mesothelioma cell lines, established from the pleural fluid of patients with the disease. These cell lines, designed Ju77, Lo68, No36, One58 and Sty51 have been previously described (1). None of the patients from whom the cell lines were derived had been exposed to chemotherapeutic agents. Two cell lines were purchased from ATCC (Rockville, Md.) for use as controls: HT29—a human colon adenocarcinoma (ATCC HTB38) and A549—a human lung adenocarcinoma (ATCC CCL185). These cell lines are representative of tumours that are generally drug resistant but have shown some responses to newer chemotherapy agents.
(§2) Cells were maintained in RPMI-1640 containing 5% fetal calf serum (Life Technologies Inc., Melbourne), 5×10^−5 M 2-mercaptoethanol, 20 mM HEPES buffer, 100 IU benzylpenicillin/ml (CSL, Perth) and 50 μg gentamicin/ml (David Bull Laboratories, Melbourne), in water saturated air containing 5% CO2 at 37° C. This growth medium will henceforth be called RF-5. All cells were checked at 3 monthly intervals for Mycoplasma and remained negative to testing.
(§3) Drug sensitivities for each cell line were determined by use of the MTT (Sigma-Aldrich, NSW) assay modified from the method described by Mossman (2). […] Optical densities were determined using a SpectraMax 250 plate reader (Molecular Devices) at 570 nm. […]

[3] = test system: A549 human lung adenocarcinoma; test: MTT assay, A549; type: cell-based; settings: 72 hours, read-out: IC50 (concentration required to reduce cell viability by 50%)
From the text: as §1, §2, §3

[4] = test system: mesothelioma and control cells; test: MTT assay, drug toxicity in mesothelioma and control cells; type: cell-based, human; settings: all cell lines
From the text: as §1, §2, §3

[5] = test system: HT29 human colon adenocarcinoma; test: MTT assay, HT29; type: cell-based; settings: HT-29, 72 hours, read-out: IC50 (concentration required to reduce cell viability by 50%)
From the text: as §1, §2, §3

[6] = test system: NO36 mesothelioma cell line; test: MTT assay, NO36; type: cell-based, human
From the text: as §1, §2, §3

[7] = test system: IL-6; settings: mesothelioma cells, concentrations producing a 5-30% reduction in relative cell growth; reference 3; cited from earlier work

IC50 [2] [ng/mL]	IC50 [3] [ng/mL]	IC50 [5] [ng/mL]	SMILES	surge in IL-6 production [1]	IL-6 production compared to untreated cells ([1]; concentrations below the IC50)	shape of dose response curve [4]	viability at 0.01 µg/mL ([6]; Homo sapiens, NO36 cells at 10 ng/ml) [%]	concentration at which cell death reaches a plateau ([6]; NO36 cells, MTT)	change in IL-6 concentration relative to untreated cells [7]
4.7 to 7.6 (≈ 5.82 to 9.41 nM)	5.4 (≈ 6.68 nM)	2 (≈ 2.48 nM)	CC(=O)O[C@@]12CO[C@@H]1C[C@H](O)[C@@]1(C)C(=O)[C@H](O)C3=C(C)[C@@H](OC(=O)[C@H](O)[C@@H](NC(=O)OC(C)(C)C)c4ccccc4)C[C@@](O)([C@@H](OC(=O)c4ccccc4)[C@H]21)C3(C)C [docetaxel, Docetaxel]	a surge in IL-6 production was measured	did not effect IL-6 production	plateau effect is clear for all cell lines	–	–	–
0.8 to 5 (≈ 3.04 to 19 nM)	1.75 (≈ 6.65 nM)	6.7 (≈ 25.5 nM)	Nc1ccn([C@@H]2O[C@H](CO)[C@@H](O)C2(F)F)c(=O)n1 [gemcitabine]	a surge in IL-6 production was measured	–	–	50	approximately 3 ng/ml	decrease in the IL-6 concentration by up to one half
